Reference: US20040116523A1, “Use of c4-c10 acids for preventing gram-negative bacterial infections” (priority 2000, published 2004)

Columns and labels:
[1] = test system: iagA′-lacZ fusion (S. typhi strain Ty267); experiment: β-galactosidase activity of the iagA′-lacZ fusion in favourable LB medium; type: cell-based; conditions: fatty acid as sodium salt, 5 mM in favourable LB medium, 6 hours at 37° C.; control 22022 ± 1177
Procedure: (§1) The favourable LB medium (high osmolarity and concentration of Ca^2+ions) was defined as being the standard LB medium modified so as to have a final NaCl concentration of 300 mM and a final Ca concentration of 5 mM.
Each of the strains described above was cultured at 37° C. on agar or in TCS broth. The P-galactosidase activity was determined using 4-methyl-umbelliferyl-p-D-galactopyranoside sold by the company Sigma, according to the technique of Klarsfeld et al. (Mol. Mibrobiol., 1994, 13, 585-597). The results, expressed in P-galactosidase units (fluorescence per hour and per OD600), represent the mean of the values obtained in at least three independent experiments. The standard deviations were less than 10% of the values presented. […]
The β-galactosidase activity of the iagA′-lacZ fusion was measured after incubation for 6 hours at 37° C. with shaking (200 rpm).
The S. typhi Ty267 strain (iagA′-lacZ fusion) was seeded into favourable LB medium and into favourable LB medium containing the fatty acid to be tested, in the form of its sodium salt, at the final concentration of 5 mM.

[2] = test system: sipB′-lacZ fusion (S. typhi strain Ty277); experiment: β-galactosidase activity of the sipB′-lacZ fusion in favourable LB medium; type: cell-based
Procedure: as §1
(§2) Each of the strains described above was cultured at 37° C. on agar or in TCS broth. The P-galactosidase activity was determined using 4-methyl-umbelliferyl-p-D-galactopyranoside sold by the company Sigma, according to the technique of Klarsfeld et al. (Mol. Mibrobiol., 1994, 13, 585-597). The results, expressed in P-galactosidase units (fluorescence per hour and per OD600), represent the mean of the values obtained in at least three independent experiments. The standard deviations were less than 10% of the values presented.
For this, the S. typhi strains Ty267, Ty272 and Ty277, which carry the iagA′-lacZ, invF′-lacZ and sipB′-lacZ fusions, respectively, (see Table I), were cultured in the favourable LB or unfavourable LB medium.
The action of these two compounds on the expression of the iagA′-lacZ, invF′-lacZ and sipB′-lacZ fusions was studied by measuring the β-galactosidase activity expressed by these fusions as a function of the time of culturing (samples removed every two hours).

[3] = test system: tviB′-lacZ fusion (S. typhi strain Ty266); experiment: β-galactosidase activity of the tviB′-lacZ fusion (specificity control); type: cell-based; conditions: 5 mM in favourable LB medium
Procedure: as §2
The tviB gene has been characterized in S. typhi, and it encodes a GDP-dehydrogenase involved in the biosynthesis of the Vi antigen, which is the capsular polysaccharide of the typhus bacillus (Waxin et al., Res. Microbiol., 1993, 144, 363-371).
The results are reported on FIG. 4, in which it is seen that samples were taken every two hours in order to measure the OD600 (corresponding to the open symbols) and in order to determine the β-galactosidase activity (corresponding to the solid symbols).

S. dublin 5917 = experiment: Splenic colonization of C57Bl/6 mice infected orally with S. dublin 5917; type: in vivo; conditions: 50 mM in drinking water pH 7.2-7.3; 10^7 bacteria per animal orally; distilled water 7.7 ± 0.4
Procedure: They were infected orally in the following way. The Salmonella strains were cultured in TCS broth for 18 hours at 37° C. with shaking (200 rpm). This culture was then adjusted to […] (in the stationary growth phase, 1 OD600 =1.5 ×10^9 bacteria/ml), and then the number of viable bacteria was controlled by counting on TCS agar.
On the day of infection (DO), the drinking-water bottles of the mice were replaced with bottles containing 100 ml of drinking water to which the required number of bacteria had been added.
After infection for 24 hours ([…]), the bottles containing the contaminated drinking water were replaced with bottles containing uncontaminated drinking water.
Seven days after infection (D+7), the spleens of the mice infected in this way were removed and homogenized separately in 1 ml of physiological saline containing 0.7% of NaCl.
The number of viable bacteria per spleen was determined by plating out dilutions of the homogenate, onto TCS agar.
The S. dublin strain 5917 (Coynault & Norel, Microb. Pathog., 1999, 26, 299-305) and S. enteritidis strain LAS (Thorns et al., Microb. Pathog., 1996, 20, 235-246) were used to infect C57B1/6 mice orally at the dose of 10^7 bacteria per animal.

[4] = test system: Gram-positive or Gram-negative microorganisms; conditions: acid pH (free acid form); cited from earlier work

## CCCCCCCC(=O)[O-].[Na+] [sodium caprylate]
[1]
  β-Galactosidase activity of the iagA′-lacZ fusion (Table VII): 445 ± 69 β-galactosidase units
[2]; 1 mM in favourable LB medium
  β-galactosidase activity expressed by the sipB′-lacZ fusion as % of that in favourable LB medium without the substance: ~20%
[2]; concentration greater than or equal to 2.5 mM, favourable LB medium
  expression of the sipB gene (sipB′-lacZ fusion): very strongly represses
[3]
  effect on the expression of the tviB′-lacZ fusion: no significant effect
S. dublin 5917
  Number of viable bacteria in the spleen (mean in log10): 2.1 ± 0.2 log10
[4]
  bactericidal activity on a great variety of Gram-positive or Gram-negative microorganisms: bactericidal activity
